How the values were obtained:
[1] = target: T1, syntenin‐PDZ tandem (without C‐terminal domain) (Homo sapiens, UniProt O00560); assay: Surface plasmon resonance (BIAcore), syntenin PDZ tandem; type: binding; conditions: compound in PBS, read-out: apparent KD, syntenin‐PDZ tandem (without C‐terminal domain)
T1 construct: made in house; host or cells: Biotin XCell F' E. coli cells
T1 sequence (O00560 107-275): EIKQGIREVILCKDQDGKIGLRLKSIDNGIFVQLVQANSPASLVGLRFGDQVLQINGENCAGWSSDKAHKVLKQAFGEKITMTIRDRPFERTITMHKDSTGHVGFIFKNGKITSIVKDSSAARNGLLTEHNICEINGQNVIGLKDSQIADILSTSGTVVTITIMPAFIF
Experimental: All SPR experiments were conducted with a BIAcore T200 instrument (GE Healthcare), at 25°C. A total of 8000 resonance units (RU) of biotinylated ligands (N‐terminal 6xHis tagged biotinylated syntenin tandem, syntenin tandem with C terminus, GRASP55 tandem or GST as control) were immobilized on a streptavidin‐sensor chip (GE Healthcare). Analytes (C58 and SyntOFF compounds) were perfused at 30 µl per min in running buffer (10 mM HEPES pH 7.4, 150 mM NaCl, 0.005% Tween20) at different concentrations. The reference channel was N‐terminal 6xHis tagged biotinylated GST protein. The injection time was 240 s, long enough for the sensorgrams to reach equilibrium, and the dissociation time was 240 s. To carry out these SPR experiments, we employed the method known as ‘single‐cycle kinetics’ described in 2006 by Karlsson and co‐workers (Karlsson, Katsamba, Nordin, Pol, & Myszka, 2006). It consists in injecting the analyte at increasing concentrations, without regeneration steps between each sample injection to avoid that folded‐proteins can be damaged after regeneration steps. Equilibrium dissociation constants (KD) were calculated by fitting the data to a simple Langmuir binding isotherm using GraphPad Prism. For determination of the apparent KD, signals obtained at equilibrium were plotted as a function of compound concentration. […]

GRASP55‐JAM‐C complex = system: T2, GRASP55‐JAM‐C complex; assay: HTRF assay, GRASP55-JAM-C interaction; type: biochemical, human; conditions: 400µM compound; Figure 1c
T2 construct: Human GRASP55 tandem PDZ; made in house; host or cells: E. coli BL21 (DE3)
Experimental: HTRF assays were performed in white 96Well Small VolumeHiBase Polystyrene Microplates (Greiner) with a total working volume of […], as described previously (Milhas et al., 2016). Briefly, compounds were firstly dispensed into the wells at 400 µM for the primary screen or with serial DMSO dilutions for IC50 measurement assays. Primary screening assays have been performed in monoplicate while IC50 measurements were performed in triplicates. All HTRF reagents were purchased from CisBio Bioassays and reconstituted according to the supplier protocols. The plates were spun for 3 min at 500 × g and then incubated at 4°C for 16 h. The HTRF signals were recorded on a POLAR star Omega plate reader (BMG Labtech) with an excitation filter at 337 nm and fluorescence wavelength measurement at 620 and 665 nm, an integration delay of 60 µs and an integration time of 400 µs. Results were analysed with a two‐wavelength signal ratio: [intensity (665 nm)/intensity (620 nm)] × 10^4. Percentage of inhibition was calculated using the following equation: % inhibition = [(compound signal)–(min signal)]/[(max signal)–(min signal)] × 100, where ‘max signal’ is the signal ratio with the compound vehicle alone (DMSO) and ‘min signal’ the signal ratio without protein B. For IC50 measurements, values were normalized and fitted with Prism (GraphPad software) using the following equation: Y = 100/(1+((X/ IC50)ˆHill slope)).
The search strategy for PDZ2 syntenin inhibitors was based on the PDZ targeted library developed from Enamine compound collection. The PDZ targeted library was developed to cover virtually all PDZ domains. Consequently, to create the syntenin PDZ2 focused library we used two independent paths: docking of the PDZ targeted library against structures of syntenin PDZ2 available in Protein Data Bank and a random selection from the PDZ targeted library. The docking has produced 21 virtual hits, which were added to 118 randomly selected compounds (10% of the pan PDZ library). The resultant set of 139 compounds, syntenin PDZ library was subjected to experimental validation. The primary screen was performed at 400µM using a previously validated Homogeneous Time Resolved Fluorescence (HTRF) assay (Milhas et al., 2016). HTRF is based on Fluorescence Resonance Energy Transfer (FRET) between two fluorescent reagents. In the present case, Anti‐GST‐Terbium antibody and streptavidin‐bound Dynamic2 were used as donor and acceptor respectively. Interactions between GST PDZ‐fusion proteins and biotinylated peptides containing PDZ binding motifs were challenged with the potential inhibitors. In parallel, control experiments were performed with a biotinylated‐GST to verify that compounds were not interfering with the FRET signal in a non‐specific manner. To identify inhibitors of syntenin PDZ interactions, we tested for the effect of the 139 compounds on syntenin‐SDC2 and syntenin‐Frizzled7 complexes (Figure 1a; Table S1). When the HTRF signal dropped below 0.9, inhibition was considered as effective. […] Noteworthy, these compounds had no effect on other PDZ complexes like GRASP55‐JAM‐B or GRASP55‐JAM‐C and Erbin‐Erbb2 or Erbin‐P0071 (Figure 1c).

MCF‐7 cells = assay: Wound-healing (migration) assay, MCF-7; type: cell-based; conditions: MCF-7, 100 µM, 24 h
Experimental: For migration assays, cells were treated with 1 ng/ml of mitomycin (Sigma M4287) overnight to inhibit cell division. Treated cells were plated in Ibidi culture‐inserts (Ibidi Cat‐80206) for 12 h to reach 90%–95% of confluence with or without compounds (100 µM). A wound was created by removing inserts from the dishes. Medium with or without compounds (100 µM) was refreshed to remove dead cells and the cells were observed under an inverted light microscope (Leica SP2) equipped with a camera. Images were taken by MetaMorph software every 10 min for 24 h. Measurements of cell velocity were calculated using the MetaMorph software.

MCF‐7 SyntKO cells = assay: Mammosphere formation assay, MCF-7 SyntKO; type: cell-based; conditions: 100 µM
Experimental: MCF‐7 and MCF‐7 SyntKO cells were treated with increasing concentrations of compounds C58, SyntOFF (50‐100µM) or DMSO 0.2% as control. After 24 h, cells were trypsinized, re‐suspended in normal growth media and washed three times in PBS to remove serum. Cell concentration was determined using the LUNA-FL Automated Fluorescence Cell Counter (Logos Biosystem) and cells were then seeded at 1000 cells/ml in 6‐well Ultra low Adherence plates (Corning Inc., Corning, NY) in MEBM medium (Lonza) supplemented with 5 µg/ml insulin (Sigma‐Aldrich), 20 ng/ml recombinant epidermal growth factor (Sigma‐Aldrich), 1X of B27 supplement (Invitrogen, Carlsbad, CA, USA), 0.5 µg/ml hydrocortisone (Sigma‐Aldrich), 1X of β‐mercaptoethanol and 1% penicillin/streptomycin (Gibco). Fresh medium was added into the plates every 3–4 days. The number of spheres (diameter > 50 µm) was evaluated under microscope on days 7–10. Sphere formation was calculated as the number of spheres divided by the original number of cells seeded and normalized to control.

Structure (SMILES)	Kd [1] [µM]	GST-GRASP JAM-C (signal ratio) (GRASP55‐JAM‐C complex)	cell migration (wound closure) (MCF‐7 cells)	mammosphere formation (MCF‐7 SyntKO cells)
CC(C)[C@H](NC(=O)CSc1ccc(Cl)cc1)C(=O)O [Compound C58]	1030	1	decreases	
CC(C)[C@H](NC(=O)CCSc1ccc(Cl)cc1)C(=O)O [SyntOFF, (S)‐2‐(3‐(4‐chlorophenylthio)propanamido)‐3‐methylbutanoic acid]				no effect

From publication PMC7737769, “Pharmacological inhibition of syntenin PDZ2 domain impairs breast cancer cell activities and exosome loading with syndecan and EpCAM cargo” (Journal of Extracellular Vesicles, 2020)
